Experimental data: ChEMBL document CHEMBL1150408, “Synthesis, induced-fit docking investigations, and in vitro aldose reductase inhibitory activity of non-carboxylic acid containing 2,4-thiazolidinedione derivatives” (Bioorg Med Chem, 2008)

Target: Aldo-keto reductase family 1 member B1 (Bos taurus, UniProt P16116)
Experiment: Inhibition of bovine lens ALR2 assessed as reduction of D,L-glyceraldehyde by spectrophotometry
Set-up: species or system Lens of camera-type eye
Conditions: not given

| IC50 [µM] | Structure (SMILES) |
| --- | --- |
| 3.67 | O=C(CN1C(=O)S/C(=C\c2ccc(Oc3ccccc3)cc2)C1=O)NO |
| 12.7 | O=C(CN1C(=O)S/C(=C\c2cccc(Oc3ccccc3)c2)C1=O)NO |
| 7.34 | O=C(CN1C(=O)S/C(=C\c2ccc(OCc3ccccc3)cc2)C1=O)NO |
| 4.2 | O=C(CN1C(=O)S/C(=C\c2cccc3ccccc23)C1=O)NO |
| 20.3 | O=C(CN1C(=O)S/C(=C\c2ccc(-c3ccccc3)cc2)C1=O)NO |
| 6.52 | NC(=O)CN1C(=O)S/C(=C\c2ccc(O)cc2)C1=O |
| 1.79 | O=C(CN1C(=O)S/C(=C\c2ccc(O)cc2)C1=O)NO |

Target: Aldo-keto reductase family 1 member B1 (Bos taurus) (UniProt P16116)
Experiment: Inhibition of bovine lens ALR2 at 12.5 uM assessed as reduction of D,L-glyceraldehyde by spectrophotometry
Format: tissue-based
Conditions: Lens of camera-type eye

| inhibition [%] | Structure (SMILES) |
| --- | --- |
| 0 | COc1ccc(/C=C2\SC(=O)N(CC(N)=O)C2=O)cc1O |
| 31 | COc1cc(/C=C2\SC(=O)N(CC(N)=O)C2=O)ccc1O |
| 32 | NC(=O)CN1C(=O)S/C(=C\c2cccc3ccccc23)C1=O |
| 16 | NC(=O)CN1C(=O)S/C(=C\c2cccc(O)c2)C1=O |
| 3 | NC(=O)CN1C(=O)S/C(=C\c2ccc3ccccc3c2)C1=O |
| 10 | COc1cccc(/C=C2\SC(=O)N(CC(N)=O)C2=O)c1 |
| 0 | NC(=O)CN1C(=O)S/C(=C\c2ccc(Oc3ccccc3)cc2)C1=O |
| 0 | COc1ccc(/C=C2\SC(=O)N(CC(N)=O)C2=O)cc1 |
| 8 | NC(=O)CN1C(=O)S/C(=C\c2cccc(Oc3ccccc3)c2)C1=O |
| 18 | NC(=O)CN1C(=O)S/C(=C\c2ccc(-c3ccccc3)cc2)C1=O |

Target: Aldo-keto reductase family 1 member B1 (Bos taurus) (UniProt P16116)
Experiment: Inhibition of bovine lens ALR2 at 25 uM assessed as reduction of D,L-glyceraldehyde by spectrophotometry
Conditions: Lens of camera-type eye

| inhibition [%] | Structure (SMILES) |
| --- | --- |
| 39 | O=C(CN1C(=O)S/C(=C\c2ccc3ccccc3c2)C1=O)NO |

Tested on: not listed separately
Experiment: Dissociation constant, pKa of the compound
Format: physicochemical
Conditions: not given

| pKa | Structure (SMILES) |
| --- | --- |
| 8 | O=C1NC(=O)[C@@]2(CCOc3ccc(F)cc32)N1 [SORBINIL] |

Target: Aldose reductase (Bos taurus)
Experiment: Inhibition of ALR2
Conditions: not given

| IC50 [µM] | Structure (SMILES) |
| --- | --- |
| 0.15 | O=C(O)CN1C(=O)S/C(=C\c2ccc(O)cc2)C1=O |
